From PMC3964211, “Pharmacokinetic modeling optimizes inhibition of the ‘undruggable’ EWS-FLI1 transcription factor in Ewing Sarcoma” (Oncotarget, 2013)

Key:
caveolin-1 = test: Caveolin-1 IHC staining of xenograft tumors; type: in vivo, SCID/bg mice; conditions: xenograft tumors of mice treated BID IP 400 mg/kg, 3 days
Procedure: We evaluated the effect of EWS-FLI1 in animals treated with YK-4-279 upon caveolin-1, a recognized direct gene target whose expression is increased by EWS-FLI1 [22, 23]. […] In addition, the staining pattern changes from membraneous to a more diffuse pattern (Figure 5A).
Two million A4573 or SK-ES Ewing's sarcoma cells in 0.1 mL were injected into an orthotopic paraosseous location, adjacent to the left proximal tibia, in 5-week-old female severe combined immunodeficient-beige (SCID/bg) mice (Harlan Laboratories, Inc., Indianapolis, IN). After primary tumors reached 250 – 300 mm^3 size, mice were randomized and received intraperitoneal injection (IP) with vehicle control (0.25% Lecithin solution or DMSO), (S)-YK-4-279, (R)-YK-4-279 or racemic YK-4-279 at a dose of 400 mg/kg twice a day (BID) for 7 days in a week. The tumor volume was determined by the formula (D × d2/6) × p, where D was the longer diameter and d was the shorter diameter. Tumor volume was monitored every day by caliper until the tumor size reaches 1cm^3. Mice were euthanized and primary tumors were collected. […]
Five micron sections from formalin fxed paraffin embedded tissues were de-paraffinized with xylenes and rehydrated through a graded alcohol series. […] The sections were evaluated, in blinded fashion two times, by a pathologist (B.K.).

SK-ES xenograft = test: Orthotopic mouse xenograft model, SK-ES, IP dosing; type: in vivo; conditions: for Regression of tumor volume over 3 days: SK-ES xenograft, 3-day, six-dose
Procedure: A series of models that combined results from in vitro colony assays and in vivo PK data were developed to evaluate several potential dosing schemes for the mice (Supplementary Figures 1A-E). We selected an IP dosing strategy (twice daily (BID) injections of […] racemic mixture) that would maintain a 3 ¼M plasma levels for greater than 72 hours in the mice (Figure 3A). With this IP dosing regimen, xenograft growth of A4573 was 70% less in the YK-4-279 treatment group compared to vehicle control (Figure 3B, p=0.04). […] To confrm the impact of YK-4-279 treatment on xenograft growth, mice with SK-ES xenografts were treated with racemic, (S), or (R)-YK-4-279 until control tumors reached 1 cm^3. Xenograft growth was reduced for those mice receiving both racemic and (S)-YK-4-279 over the control (Figure 3D, p=0.02 and p=0.003, respectively). […] Tumors were analyzed for drug levels of racemic, (R)-, and (S)-YK-4-279. Three of four mice treated with racemic compound had tumor levels of (S)-YK-4-279 that ranged from ~12-35 ¼g eq/g, which correlated with tumor growth ratios of less than 1.0, indicating response to the drug (Figure 3F). Those animals treated with the active (S)-YK-4-279 levels had tumor levels that were below 10 ¼g eq/g (Figure 3F). Tumor levels of (R)-YK-4-279 are also provided (Supplementary Figure 1F).
In order to evaluate tumors from animals treated in a similar fashion, including resection prior to central necrosis in controls, a 3-day, six-dose, experiment was executed. Treatment was initiated with racemic, (S)-, or (R)-YK-4-279 using BID IP administration at 400 mg/kg when tumors were well established at a volume of 250 to 300 mm^3. Both ES models treated with either racemic or (S)-YK-4-279 regressed by 25–30% of tumor volume over 3 days, while tumors grew in control and (R)-YK-4-279 treated animals (Figures 4A and B). Two hours following the 6th dose, mice were euthanized for tumor analysis. […] To confirm the apoptotic cell death, sections from A4573 tumors were stained with TUNEL (Figures 4D) and there was a 3 – 4 fold increase in TUNEL-positive cells treated with (S)-YK-4-279 compared to (R)-YK-R-279 treated tumors (Figure 4E). […] Levels of each enantiomer were measured in tumor samples and (S)-YK-4-279 levels correlated with clinical regression (Supplemental Figure 2B–E).
Two million A4573 or SK-ES Ewing's sarcoma cells in 0.1 mL were injected into an orthotopic paraosseous location, adjacent to the left proximal tibia, in 5-week-old female severe combined immunodeficient-beige (SCID/bg) mice (Harlan Laboratories, Inc., Indianapolis, IN). After primary tumors reached 250 – 300 mm^3 size, mice were randomized and received intraperitoneal injection (IP) with vehicle control (0.25% Lecithin solution or DMSO), (S)-YK-4-279, (R)-YK-4-279 or racemic YK-4-279 at a dose of 400 mg/kg twice a day (BID) for 7 days in a week. The tumor volume was determined by the formula (D × d2/6) × p, where D was the longer diameter and d was the shorter diameter. Tumor volume was monitored every day by caliper until the tumor size reaches 1cm^3. Mice were euthanized and primary tumors were collected. For the pharmacodynamics study mice were randomized and received 6 doses treatment with vehicle control (0.25% Lecithin solution or DMSO), (S)-YK-4-279, (R)-YK-4-279 or racemic YK-4-279 at a dose of 400 mg/kg twice a day (BID). Mice were euthanized after 2 hours of last 6th dosing and primary tumors were collected. Animal studies were approved by an Institutional Animal Care and Use Committee of the Georgetown University.
The plasma and tumor sample analysis was performed using calibration standards and Quality Control (QC) samples prepared in control rat or mouse plasma and tumor tissues. Plasma and tumor calibration standards were prepared from stock solutions of YK-4-279. […]

`COc1ccc(C(=O)C[C@]2(O)C(=O)Nc3c(Cl)ccc(Cl)c32)cc1` [(R)-YK-4-279] was tested, and the Caveolin-1 immunohistochemical staining (caveolin-1) was “expected membrane caveolin-1 expression” and the “Regression of tumor volume over 3 days” value (SK-ES xenograft; BID IP 400 mg/kg) was “tumors grew”.

With `COc1ccc(C(=O)CC2(O)C(=O)Nc3c(Cl)ccc(Cl)c32)cc1` (centres unmarked) [YK-4-279] the Caveolin-1 immunohistochemical staining (caveolin-1) was “reduced caveolin-1 staining”, the Overall survival (SK-ES xenograft; SK-ES xenograft mice, BID IP 400 mg/kg, p=0.013 vs control) was “improved overall survival” and the “Xenograft growth less than control group” value (SK-ES xenograft; SK-ES xenograft mice, BID IP racemic mixture (375 mg/kg in text, 400 mg/kg in Figure 3 legend), p=0.02) was 70%. The “Regression of tumor volume over 3 days” value (SK-ES xenograft; BID IP 400 mg/kg) was 25–30%, the “Xenograft growth over the control” value (SK-ES xenograft; SK-ES xenografts, BID IP 400 mg/kg until control tumors reached 1 cm^3) was “reduced” and the Tumor growth ratios (SK-ES xenograft; SK-ES xenografts, three of four mice treated with racemic compound) was “less than 1.0”.
